The source of these data is ChEMBL document CHEMBL2346546, “Hit identification of novel heparanase inhibitors by structure- and ligand-based approaches” (Bioorg Med Chem, 2013).

Broadly, the Kd is the equilibrium constant for the complex coming apart. What is called IC50 is the concentration that gives 50% inhibition.

Each structure is given as a SMILES string. Calls of active or inactive are those of the source. The calls are words filed in the database; no cut-off is given here.

Assay [1] deals with T1, Heparanase (Homo sapiens, UniProt Q9Y251).
T1 sequence (Q9Y251 whole entry): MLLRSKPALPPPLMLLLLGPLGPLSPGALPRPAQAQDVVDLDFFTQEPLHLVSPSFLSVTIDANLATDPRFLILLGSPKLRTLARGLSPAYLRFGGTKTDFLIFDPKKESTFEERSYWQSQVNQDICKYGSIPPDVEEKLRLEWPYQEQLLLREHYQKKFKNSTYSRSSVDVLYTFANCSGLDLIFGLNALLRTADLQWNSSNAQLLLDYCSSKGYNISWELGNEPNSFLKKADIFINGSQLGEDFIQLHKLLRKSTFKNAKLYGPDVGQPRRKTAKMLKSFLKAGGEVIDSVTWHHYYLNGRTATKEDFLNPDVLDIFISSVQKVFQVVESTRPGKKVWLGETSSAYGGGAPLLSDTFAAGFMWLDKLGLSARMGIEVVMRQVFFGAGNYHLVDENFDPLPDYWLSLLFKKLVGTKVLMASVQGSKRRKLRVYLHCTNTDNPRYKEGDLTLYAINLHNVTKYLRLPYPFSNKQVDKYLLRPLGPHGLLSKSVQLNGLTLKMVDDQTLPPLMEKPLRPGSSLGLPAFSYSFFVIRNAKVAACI
Briefly: Binding affinity to recombinant heparanase catalytic stie (unknown origin) expressed in Escherichia coli BL21 (DE3) by surface plasmon resonance assay. (In general: Surface plasmon resonance follows binding to a sensor surface in real time, without labels.)

Assay [2] addresses T1, Heparanase. Description: Inhibition of recombinant heparanase catalytic stie (unknown origin) expressed in Escherichia coli BL21 (DE3).
For assay [3], the target named is T2, Heparanase (Homo sapiens) (UniProt Q9Y251).
T2 sequence (whole entry): T1 sequence (Q9Y251 whole entry)
Briefly: Binding affinity to recombinant heparanase catalytic stie (unknown origin) expressed in Escherichia coli BL21 (DE3) by NMR analysis.

`CCOc1ccc(Nc2ccnc3cc(Cl)ccc23)cc1CN1CCCC1`: the Kd on Heparanase [1] is 169 µM.
For `CCCCCCCCCCCCCCCC(=O)C1=C(O)[C@@H](CO)OC1=O`, at Heparanase [2], the 50% inhibitory concentration (IC50) was 17 µM.
On to `CN(C)CCCNC(=O)c1cc(NC(=O)CN2CCCCC2)cc(Nc2ccnc3cc(Cl)ccc23)c1`, for which the dissociation constant Kd at Heparanase [1] is more than 1000 µM.
Consider `COc1cc(N)c(Cl)cc1C(=O)NC1CCN(CCCOc2ccc(F)cc2)CC1OC` (stereo unspecified) [CISAPRIDE], for which the outcome in assay [3] was Active. Also, the Kd at Heparanase [1] is more than 1000 µM.
As to `CCN(CC)Cc1cc(Nc2ccnc3cc(Cl)ccc23)ccc1N1CCOCC1`, on Heparanase [1], the Kd is 239 µM.
As to `CN(C)CCNCc1cc(NC(=O)CN2CCCCC2)cc(Nc2ccnc3cc(Cl)ccc23)c1`, the equilibrium dissociation constant (Kd) at Heparanase [1] is 639 µM.
As for `CN1C[C@H](CNC(=O)OCc2ccccc2)C[C@@H]2c3cccc4c3c(cn4C)C[C@H]21` [METERGOLINE], in assay [3], the result was Active. The Kd on Heparanase [1] is more than 1000 µM.
On to `CC(CCc1ccccc1)NCC(O)c1ccc(O)c(C(N)=O)c1` (stereo unspecified) [LABETALOL], for which, in assay [3], the result was Active. Also, the dissociation constant Kd at Heparanase [1] was found to be 1000 µM.
For the compound `O=C(O)c1ccccc1C(=O)c1ccc(Oc2ccccc2)c([N+](=O)[O-])c1`, at Heparanase [2], the IC50 amounted to 1 µM.
Take `CCN(CC)Cc1cc(Nc2ccnc3cc(Cl)ccc23)ccc1O`: the outcome in assay [3] was Active. In addition, the dissociation constant (Kd) at Heparanase [1] turned out to be 52.6 µM.
Turning to `C[C@@H]1O[C@@H](O[C@H]2[C@H](Oc3cc(O)c4c(c3)O[C@H](c3ccc(O)cc3)CC4=O)O[C@H](CO)[C@@H](O)[C@@H]2O)[C@H](O)[C@H](O)[C@H]1O` [NARINGIN], the result in assay [3] was Active. Besides, on Heparanase [1], the Kd was more than 1000 µM.
On to `CCCCCCCCCCCCCCCc1cc(O[C@@H]2OC(C(=O)O)[C@H](O)[C@H](O)C2O)cc(O)c1C(=O)Oc1cc(C)c(C(=O)O)c(O)c1` (stereo partly specified), for which the IC50 at Heparanase [2] came out at 10 µM.
As to `COc1ccc([C@@H]2CC(=O)c3c(O)cc(O[C@@H]4O[C@H](CO[C@@H]5O[C@@H](C)[C@H](O)[C@@H](O)[C@H]5O)[C@@H](O)[C@H](O)[C@H]4O)cc3O2)cc1O` [HESPERIDIN], in assay [3], the result was Active. In addition, the dissociation constant Kd at Heparanase [1] is more than 1000 µM.
The like results for `COc1ccc(CCN2CCC(Nc3nc4ccccc4n3Cc3ccc(F)cc3)CC2)cc1` [ASTEMIZOLE] were, in that order, “Active” and more than 1000 µM.
`CCN(CC)Cc1cc(Nc2ccnc3cc(Cl)ccc23)ccc1Br`: the Kd on Heparanase [1] was more than 1000 µM.
On to `Clc1ccc2c(Nc3ccc(-c4ccco4)c(CN4CCCC4)c3)ccnc2c1`, for which, at Heparanase [1], the Kd was more than 1000 µM.
Turning to `O=C(CN1CCCCC1)Nc1cc(CN2CCC(O)CC2)cc(Nc2ccnc3cc(Cl)ccc23)c1`, on Heparanase [1], the Kd was found to be 1000 µM.
With `CCCCCCCCCCCCCCCC(=O)C1=C(OC)[C@@H](CO)OC1=O`, the IC50 on Heparanase [2] was more than 100 µM.
As for `O=C(CN1CCCCC1)Nc1cc(Nc2ccnc3cc(Cl)ccc23)cc(C(=O)N2CCOCC2)c1`, the dissociation constant (Kd) on Heparanase [1] was more than 1000 µM.
